Assay results: patent US7282491B2, “Prokaryotic proteasomal proteases of Mycobacterium tuberculosis (MTB) as targets for antibiotic therapy” (Cornell Research Foundation, Inc., priority 2002, dated 2007)

What was measured:
wt Mtb [1] = system: wt Mtb
wt Mtb [2] = format: cell-based, Mycobacterium tuberculosis; conditions: for augmentation of anti-mycobacterial activity of nitrite, inhibitor added along with nitrite at day 0: pH 6.5
wt Mtb [3] = format: cell-based, Mycobacterium tuberculosis
mycobacterial proteasome = mycobacterial proteasome (Mycobacterium tuberculosis, UniProt P9WHT9); conditions: tetrapeptide substrate, 0.05% SDS; FIG. 11A
Experimental: To measure proteasomal protease activity, Mtb was lysed by agitation with zirconia silica beads. The soluble fraction was filtered through a 0.45 micron filter. Aliquots of the filtrate (120 g protein) were incubated with succinyl-leu-leu-val-tyr-alpha-methylcoumarin (SEQ ID NO: 1) in the presence of 0.05% SDS and fluorescence was monitored. […] The 50% inhibitory concentration was determined by applying the Hill equation to data from 2 experiments, each in triplicate.

tubercle bacilli = conditions: cited from earlier work

mycobacterial proteasome, sequence (P9WHT9 58-291): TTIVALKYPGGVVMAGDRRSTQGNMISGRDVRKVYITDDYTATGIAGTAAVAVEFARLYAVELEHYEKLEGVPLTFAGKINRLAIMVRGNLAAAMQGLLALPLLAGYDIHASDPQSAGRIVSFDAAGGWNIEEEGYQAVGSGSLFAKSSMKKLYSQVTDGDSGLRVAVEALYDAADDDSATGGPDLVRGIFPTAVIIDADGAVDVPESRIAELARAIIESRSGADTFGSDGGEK
mycobacterial proteasome, sequence (P9WHU1 whole entry partner): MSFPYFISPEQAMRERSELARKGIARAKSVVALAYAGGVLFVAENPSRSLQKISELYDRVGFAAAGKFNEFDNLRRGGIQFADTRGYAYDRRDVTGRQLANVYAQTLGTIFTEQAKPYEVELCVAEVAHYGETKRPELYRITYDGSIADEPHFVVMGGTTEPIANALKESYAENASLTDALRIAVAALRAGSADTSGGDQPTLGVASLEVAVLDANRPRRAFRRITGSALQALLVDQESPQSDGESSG

Compound	outgrowth of Mtb in culture after nitrite (wt Mtb [1])	augmentation of anti-mycobacterial activity of nitrite, inhibitor added only at the subculture (wt Mtb [2])	augmentation of nitrite-mediated injury of wt Mtb (wt Mtb [2])	augmentation of the mycobacteriacidal effect of nitrite, inhibitors and nitrite removed simultaneously (wt Mtb [2])	augmentation of anti-mycobacterial activity of nitrite, inhibitor added along with nitrite at day 0 (wt Mtb [2])	growth of Mtb under standard culture conditions (wt Mtb [3])	inhibition of proteasomal protease activity in Mtb lysates (mycobacterial proteasome)	potency of killing tubercle bacilli in vitro (tubercle bacilli) [µM]
CC(C)C[C@H](NC(=O)[C@H](Cc1cccc2ccccc12)NC(=O)N1CCOCC1)B(O)O [MLN-273, N-[4-morpholine]carbonyl-β-[1-naphthyl]-L-alanine-L-leucine boronic acid]	enhanced the ability of nitrite to suppress outgrowth of Mtb	just as effective	augmented nitrite-mediated injury	did not	increased the anti-mycobacterial activity of nitrite	suppressed the growth of Mtb	potently blocked proteasomal protease activity	–
CC[C@H](C)[C@H](NC(=O)[C@H]([C@@H](C)CC)N(C)C(C)=O)C(=O)N[C@H](C(=O)N[C@@H](CC(C)C)C(=O)[C@@]1(C)CO1)[C@@H](C)O [epoxomicin]	–	just as effective	–	augmented the mycobacteriacidal effect of nitrite	increased the anti-mycobacterial activity of nitrite	–	–	–
[N]=O [nitric oxide]	–	–	–	–	–	–	–	~0.15
